Measured values published in patent US8552037B2, “Tricyclic compound and pharmaceutical use thereof” (Takeda Pharmaceutical Company Limited, priority 2006, dated 2013).

Tests used:
[1] = target: human melatonin 2 receptors (human MT2 receptors) (Homo sapiens (Human), UniProt P49286); experiment: Melatonin receptor binding assay, 2-[125I] Iodomelatonin, CHO-hMT2 cell membrane fraction; settings: binding inhibition of 2-[125I] Iodomelatonin, CHO-hMT2 membranes, 25° C., 2.5 hr
Method: (§1) Melatonin Receptor Binding Assay
(2) Preparation of CHO-hMT2 Cells Expressing Human Melatonin 2 Receptors
CHO-K1 cells (ATCC, #CCL-61) were plated at the concentration of 1.5×10^5 cells/cm^2 in a 6 well plate (ASAHI TECHNO GLASS), and cultured under the conditions of 37° C., 5% CO2 for 24 hr.
(§2) (3) Preparation of Cell Membrane Fraction of CHO Cell (CHO-hMelR7 and CHO-hMT2) Stably Expressing Human MT1 and MT2 Receptors
(§3) CHO-hMelR7 and CHO-hMT2 cells were plated using Cellfactory (Nunc, #170009) under the conditions of 1×10^8 cells/2000 mL/flask. The cells were grown to confluent, and recovered by the following method. As the medium for CHO-hMelR7 and CHO-hMT2, MEM α containing 10% FBS and penicillin/streptomycin was used. […] of geneticin was added to the medium for CHO-hMT2.
(§4) The medium was discarded, cells were washed twice with 200 mL of EDTA/PBS(−), 200 mL of EDTA/PBS(−) was further added, and the cells were stood still at room temperature for 20 min until they were released. […] The mixture was further centrifuged at 1,500 rpm for 10 min at 4° C., and the obtained pellets were suspended in 20 mL of ice-cooled homogenizing buffer [10 mM NaHCO3, 5 mM EDTA, Protease inhibitor Complete (Roche), pH 7.4]. The cell suspension was homogenized 3 times using a polytron homogenizer at 20,000 rpm for 30 sec. The obtained homogenate was centrifuged (2,000 rpm, 10 min, 4° C.) using a low speed cooling centrifuge. The supernatant was recovered in an ultracentrifugation tube and ultracentrifuged (40,000 rpm, 60 min, 4° C.) using an ultracentrifuge (Beckman, L-90K). To the obtained pellets was added a suspending buffer [50 mM Tris-HCl, 1 mM EDTA, Protease inhibitor Complete (Roche), pH 7.4], and the pellets were suspended by pipetting. The protein concentration of this suspension was measured, diluted to 2 mg/mL to give cell membrane fractions of CHO-hMelR7 and CHO-hMT2 cells. […] Protein was quantified using BCA protein assay kit (Pierce) with BSA as the standard.
(§5) (4) Preparation of Membrane Fraction Suspension
(§6) Immediately before use, the membrane fractions of CHO-hMelR7 and CHO-hMT2 cells of the above-mentioned (3) were diluted 20-fold with assay buffer (50 mM Tris-HCl, pH 7.7).
(§7) Iodomelatonin (#NEX236, PerkinElmer) was diluted with the assay buffer to 400 pM for MT1 and 1 nM for MT2.
(§8) Then, a test compound (compound solution diluted with DMSO to 200-fold of the final measurement concentration) was added by 2 μL. 2 μL of DMSO was added to each well of the total binding control section, and 100 μM cold Melatonin solution (Sigma, diluted with DMSO to 100 μM) was added to each well of the nonspecific binding control section by 2 μL. Then, the membrane fraction suspension (100 μL) was added. […] Iodomelatonin solution of the above-mentioned (5) was added to each well mentioned above by 20 μL, and a binding reaction was carried out at 25° C. for 2.5 hr in a micromixer (TAITEC, Bioshaker M.BR-024).
(§9) Using a cell harvester (PerkinElmer), the binding reaction mixture in each well of the 96-well plate was transferred to a treated (immersed in 50 mM Tris, pH 7.7 in advance) filter plate (UniFilter GF/C, PerkinElmer) and filtered. After filtration, the plate was washed 4 times with the assay buffer, and dried in a dryer (42° C.) for 2 hr or more. 25 μL of a liquid scintillator (MicroScint O, PerkinElmer) was added to each well of the filter plate after drying, and the luminescence of scintillator was measured by TopCount (PerkinElmer) for 1 min.
(§10) Specific binding is a value obtained by subtracting nonspecific binding from the total binding. The binding inhibitory activity of the test compound is shown by the ratio of the value obtained by subtracting the measurement value when the test compound was added from the total binding, to the specific binding.

[2] = target: human melatonin 1 receptors (human MT1 receptors) (Homo sapiens (Human), UniProt P48039); experiment: Melatonin receptor binding assay, 2-[125I] Iodomelatonin, CHO-hMelR7 cell membrane fraction; settings: binding inhibition of 2-[125I] Iodomelatonin, CHO-hMelR7 membranes, 25° C., 2.5 hr
Chain of human melatonin 1 receptors (human MT1 receptors) (P48039 whole entry): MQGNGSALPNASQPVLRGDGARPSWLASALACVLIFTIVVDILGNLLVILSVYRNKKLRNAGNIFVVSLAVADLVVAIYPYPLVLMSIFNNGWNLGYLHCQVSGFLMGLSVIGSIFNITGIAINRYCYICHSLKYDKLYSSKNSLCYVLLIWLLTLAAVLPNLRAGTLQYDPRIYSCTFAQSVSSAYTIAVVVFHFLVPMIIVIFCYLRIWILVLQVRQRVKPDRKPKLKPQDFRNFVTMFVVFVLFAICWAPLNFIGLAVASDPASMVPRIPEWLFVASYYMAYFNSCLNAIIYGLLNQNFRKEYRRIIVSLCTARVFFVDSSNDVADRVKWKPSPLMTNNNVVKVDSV
Method: as §1
(1) Preparation of CHO-hMelR7 Cells Expressing Human Melatonin 1 Receptors
as §2, §3, §4, §5, §6, §7, §8, §9, §10

[3] = In vitro metabolic stability test; format: in vitro ADME; settings: human liver microsome, NADPH production system, 37° C., 20 min incubation, HPLC-UV
Method: In Vitro Metabolic Stability Test
(1) Preparation of Analysis Sample
The necessary amounts of the analysis samples were prepared at the following composition ratio. Test compound mixture: 0.1 mol/L phosphate buffer (pH 7.4) (41 μL), control microsome (manufactured by Gentest, human lymphoblastoid cell-derived control microsome, 10 mg protein/mL) (8 μL), and test compound 0.1 mM methanol solution (1 μL). Microsome mixed solution: 0.1 mol/L phosphate buffer (pH 7.4) (9 μL), human liver microsome (manufactured by XENOTECH, H0610, 20 mg protein/mL) (1 μL), and purified water (20 μL). NADPH production system: 50 mmol/L β-NADP+ (200 μL), 500 mmol/L Glucose-6-phosphate (200 μL), 150 unit/mL Glucose-6-phosphate dehydrogenase (200 μL), 0.1 mol/L MgCl2 (1 mL), and purified water (2.4 mL).
Microsome mixed solution (30 μL) and NADPH production system (20 μL) were sequentially dispensed to each well of a 96 well plate (type 3371, Corning), and a test compound mixture (50 μL) was added. Acetonitrile (100 μL) was added before start of incubation at 37° C. or 20 min later to give samples before and after incubation. These samples were centrifuged (3,000 rpm, 10 min), and the supernatant was dispensed to a 96 well plate by about 100 μL and 2-fold diluted with purified water (100 μL). 90 μL thereof was analyzed by HPLC.
HPLC analysis Conditions • Instrument: Shimadzu LC10vp • Column: CAPCELL PAK C18 MGII (4.6×75 mm, 3 μm) • Mobile phase A: 10 mmol/L ammonium acetate:acetonitrile=9:1 • Mobile phase B: 10 mmol/L ammonium acetate:acetonitrile=1:9 • Flow rate: 1 mL/min • Column temperature: 40° C. • Detection: UV (250 nm) • Gradient: […]
(3) Data Analysis and Results
Elimination percentage was determined from the difference in the unchanged compound peak areas before and after the start of the reaction, normalized based on the reaction time and microsome concentration, and the elimination rate (%/min/mg) was calculated.

Chain of human melatonin 2 receptors (human MT2 receptors) (P49286 whole entry): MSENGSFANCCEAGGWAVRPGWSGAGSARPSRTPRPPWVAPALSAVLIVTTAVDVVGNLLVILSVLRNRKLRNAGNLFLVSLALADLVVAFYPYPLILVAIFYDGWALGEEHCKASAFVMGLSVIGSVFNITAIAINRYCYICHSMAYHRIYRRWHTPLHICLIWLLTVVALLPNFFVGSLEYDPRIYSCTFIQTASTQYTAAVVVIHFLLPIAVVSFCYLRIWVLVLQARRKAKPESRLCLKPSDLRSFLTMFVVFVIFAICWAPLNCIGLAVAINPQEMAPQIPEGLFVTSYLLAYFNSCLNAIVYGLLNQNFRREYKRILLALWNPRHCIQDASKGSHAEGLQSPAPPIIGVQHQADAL

## CC(=O)NCC=C1CCc2ccc3nc(C)oc3c21 [Example 3, N-[2-(2-Methyl-6,7-dihydro-8H-indeno[5,4-d][1,3]oxazol-8-ylidene)ethyl]acetamide]
[1]
  IC50: 0.37 nM
[2]
  IC50: 0.33 nM
other
  melting point: 188 to 190 °C

## CC(=O)NCCC1=CCc2ccc3nc(C)oc3c21 [Example 4, N-[2-(2-Methyl-6H-indeno[5,4-d][1,3]oxazol-8-yl)ethyl]acetamide]
[1]
  IC50: 0.24 nM
[2]
  IC50: 0.068 nM
other
  melting point: 154 to 156 °C

## CCC(=O)NCC=C1CCc2ccc3nc(C)oc3c21 [Example 5, N-[2-(2-Methyl-6,7-dihydro-8H-indeno[5,4-d][1,3]oxazol-8-ylidene)ethyl]propionamide]
[1]
  IC50: 0.22 nM
[2]
  IC50: 0.25 nM
other
  melting point: 214 to 216 °C

## CC(=O)NCC=C1CCc2ccc3nc(CCCCc4ccccc4)oc3c21 [Example 6, N-{2-[2-(4-Phenylbutyl)-6,7-dihydro-8H-indeno[5,4-d][1,3]oxazol-8-ylidene]ethyl}acetamide]
[1]
  IC50: 0.43 nM
[2]
  IC50: 0.079 nM
other
  melting point: 113 to 115 °C

## CC(=O)NCC=C1CCc2ccc3nc(C)sc3c21 [Example 8, N-[2-(2-Methyl-6,7-dihydro-8H-indeno[5,4-d][1,3]thiazol-8-ylidene)ethyl]acetamide]
[1]
  IC50: 0.22 nM
[2]
  IC50: 0.19 nM
other
  melting point: 184 to 186 °C

## CC(=O)NCCC1CCc2ccc3ncoc3c21 (stereo not drawn) [Example 9, N-[2-(7,8-Dihydro-6H-indeno[5,4-d][1,3]oxazol-8-yl)ethyl]acetamide]
[1]
  IC50: 0.31 nM
[2]
  IC50: 0.88 nM

## CC(=O)NCCC1CCc2ccc3nc(C)oc3c21 (stereo not drawn) [Example 11, N-[2-(2-Methyl-7,8-dihydro-6H-indeno[5,4-d][1,3]oxazol-8-yl)ethyl]acetamide]
[1]
  IC50: 0.31 nM
[2]
  IC50: 0.15 nM

## CC(=O)NCC[C@@H]1CCc2ccc3nc(C)oc3c21 [Example 12, (S)-N-[2-(2-Methyl-7,8-dihydro-6H-indeno[5,4-d][1,3]oxazol-8-yl)ethyl]acetamide]
[1]
  IC50: 0.13 nM
[3]
  elimination rate (%/min/mg): −0.3 %/min/mg
[2]
  IC50: 0.057 nM

## CC(=O)NCC[C@H]1CCc2ccc3nc(C)oc3c21 [Example 13, (R)-N-[2-(2-Methyl-7,8-dihydro-6H-indeno[5,4-d][1,3]oxazol-8-yl)ethyl]acetamide]
[1]
  IC50: 9.6 nM
[2]
  IC50: 15 nM

## CCC(=O)NCCC1CCc2ccc3nc(C)oc3c21 (stereo not drawn) [Example 14, N-[2-(2-Methyl-7,8-dihydro-6H-indeno[5,4-d][1,3]oxazol-8-yl)ethyl]propionamide]
[1]
  IC50: 0.28 nM
[2]
  IC50: 0.13 nM

## CCC(=O)NCC[C@@H]1CCc2ccc3nc(C)oc3c21 [Example 15, (S)-N-[2-(2-Methyl-7,8-dihydro-6H-indeno[5,4-d][1,3]oxazol-8-yl)ethyl]propionamide]
[1]
  IC50: 0.049 nM
[3]
  elimination rate (%/min/mg): 2.6 %/min/mg
[2]
  IC50: 0.03 nM

## CCC(=O)NCC[C@H]1CCc2ccc3nc(C)oc3c21 [Example 16, (R)-N-[2-(2-Methyl-7,8-dihydro-6H-indeno[5,4-d][1,3]oxazol-8-yl)ethyl]propionamide]
[1]
  IC50: 6.2 nM
[2]
  IC50: 11 nM

## CC(=O)NCCC1CCc2ccc3nc(CCCCc4ccccc4)oc3c21 (stereo not drawn) [Example 17, N-{2-[2-(4-Phenylbutyl)-7,8-dihydro-6H-indeno[5,4-d][1,3]oxazol-8-yl]ethyl}acetamide]
[1]
  IC50: 0.091 nM
[2]
  IC50: 0.022 nM

## CC(=O)NCCC1CCc2ccc3nc(C)sc3c21 (stereo not drawn) [Example 19, N-[2-(2-Methyl-7,8-dihydro-6H-indeno[5,4-d][1,3]thiazol-8-yl)ethyl]acetamide]
[1]
  IC50: 0.28 nM
[3]
  elimination rate (%/min/mg): 2.4 %/min/mg
[2]
  IC50: 0.15 nM

## CC(=O)NCC[C@@H]1CCc2ccc3nc(C)sc3c21 [Example 20, (S)-N-[2-(2-Methyl-7,8-dihydro-6H-indeno[5,4-d][1,3]thiazol-8-yl)ethyl]acetamide]
[1]
  IC50: 0.12 nM
[3]
  elimination rate (%/min/mg): 2.7 %/min/mg
[2]
  IC50: 0.038 nM

## CC(=O)NCC[C@H]1CCc2ccc3nc(C)sc3c21 [Example 21, (R)-N-[2-(2-Methyl-7,8-dihydro-6H-indeno[5,4-d][1,3]thiazol-8-yl)ethyl]acetamide]
[1]
  IC50: 8.5 nM
[2]
  IC50: 19 nM

## CCc1nc2ccc3c(c2o1)C(CCNC(C)=O)CC3 (stereo not drawn) [Example 22, N-[2-(2-Ethyl-7,8-dihydro-6H-indeno[5,4-d][1,3]oxazol-8-yl)ethyl]acetamide]
[1]
  IC50: 0.41 nM
[2]
  IC50: 0.36 nM
other
  melting point: 76 to 78 °C

## CC(=O)NCCC1CCc2ccc3nc(C4CC4)oc3c21 (stereo not drawn) [Example 29, N-[2-(2-Cyclopropyl-7,8-dihydro-6H-indeno[5,4-d][1,3]oxazol-8-yl)ethyl]acetamide]
[1]
  IC50: 0.75 nM
[2]
  IC50: 0.66 nM
other
  melting point: 92 to 95 °C

## COc1nc2ccc3c(c2o1)C(CCNC(C)=O)CC3 (stereo not drawn) [Example 38, N-[2-(2-Methoxy-7,8-dihydro-6H-indeno[5,4-d][1,3]oxazol-8-yl)ethyl]acetamide]
[1]
  IC50: 0.28 nM
[3]
  elimination rate (%/min/mg): 2.6 %/min/mg
[2]
  IC50: 0.54 nM
other
  melting point: 126 to 128 °C

## Cc1nc2ccc3c(c2o1)C(CCNC(=O)C1CC1)CC3 (stereo not drawn) [Example 43, N-[2-(2-Methyl-7,8-dihydro-6H-indeno[5,4-d][1,3]oxazol-8-yl)ethyl]cyclopropanecarboxamide]
[1]
  IC50: 0.77 nM
[2]
  IC50: 0.25 nM
other
  melting point: 134 to 137 °C

## Cc1nc2ccc3c(c2o1)C(CCNC(=O)C(F)(F)F)CC3 (stereo not drawn) [Example 45, 2,2,2-Trifluoro-N-[2-(2-methyl-7,8-dihydro-6H-indeno[5,4-d][1,3]oxazol-8-yl)ethyl]acetamide]
[1]
  IC50: 0.14 nM
[2]
  IC50: 0.095 nM
other
  melting point: 104 to 106 °C
